Experimental data published in ChEMBL document CHEMBL1201862, “PubChem BioAssay data set” (2004).
Where a name gives a salt, the structure may show the parent alone. Active and inactive are the calls of the source.

Key:
[1] = viability inhibitors of stage V gametocytes – luminescence, dose response (AID 1117278); type: functional, cell-based;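 further: gametocytes exposed to compound for 24 hours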
[2] = viability loss in human Jurkat cells – cell-based, luminescence, cytotoxicity control for P. falciparum gametocyte viability project, dose response (AID 1117277); type: functional;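 further: potency reflects loss of cellular ATP meaning fewer viable cells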
[3] = target: Glutathione-S-transferase (Schistosoma japonicum, UniProt Q26513); test: GST-antibody interaction or FRET quenching – biochemical, TR-FRET, artefact control for Vif-APOBEC3G degradation inhibitor project, dose response (AID 1117362); type: functional
[4] = cytotoxicity in MITF-independent A375 cells – cell-based, CellTiter-Glo luminescence, dry powder, set 4, counter-screen for MITF inhibitor project, dose response (AID 624364); type: functional; details: A-375;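 further: A375 melanoma cells are MITF independent so this is a counter screen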
[5] = MITF Orthogonal Assay: SK-MEL-5 CTG Assay Measured in Cell-Based System Using Plate Reader - 2084-02_Inhibitor_Dose_DryPowder_Activity_Set5.; type: functional
[6] = growth inhibition of MALME3 cells – cell-based, CellTiter-Glo luminescence, dry powder, set 5, orthogonal assay for MITF inhibitor project, dose response (AID 651584); type: functional; details: MALME-3
[7] = MITF Measured in Cell-Based System Using Plate Reader - 2084-01_Inhibitor_Dose_DryPowder_Activity_Set6.; type: functional
[8] = tested on: Streptococcus; test: GAS UMAA2166 growth inhibition – luminescence, BacTiterGlo, counter-screen for streptokinase expression inhibitor project, dose response (AID 1915); type: functional, organism-based;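 further: potency for reduction of bacterial viability or growth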
[9] = MITF Orthogonal Assay: MALME3 CTG Assay Measured in Cell-Based System Using Plate Reader - 2084-04_Inhibitor_Dose_DryPowder_Activity_Set6.; type: functional; details: MALME-3
[10] = THP-1 cell cytotoxicity, dose response, cytotoxicity control for non-replicating M. tuberculosis project (AID 489025); type: functional
[11] = viability loss in MITF-independent A375 cells – cell-based, CellTiter-Glo luminescence, dry powder, set 2, counter-screen for MITF inhibitor project, dose response (AID 624489); type: functional; details: A-375;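 further: actives are compounds lowering A375 viability meaning general cytotoxicity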
[12] = target: T1, Microphthalmia-associated transcription factor (Homo sapiens, UniProt O75030); test: reducers of TRPM1 reporter luminescence, concentration series – cell-based, SK-MEL-5, cherry-picked, set 3, MITF inhibitor project, dose response (AID 493073); type: functional;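 further: SK-MEL-5 melanoma cells with luciferase driven by the MITF target TRPM1 promoter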
T1 sequence (O75030 whole entry): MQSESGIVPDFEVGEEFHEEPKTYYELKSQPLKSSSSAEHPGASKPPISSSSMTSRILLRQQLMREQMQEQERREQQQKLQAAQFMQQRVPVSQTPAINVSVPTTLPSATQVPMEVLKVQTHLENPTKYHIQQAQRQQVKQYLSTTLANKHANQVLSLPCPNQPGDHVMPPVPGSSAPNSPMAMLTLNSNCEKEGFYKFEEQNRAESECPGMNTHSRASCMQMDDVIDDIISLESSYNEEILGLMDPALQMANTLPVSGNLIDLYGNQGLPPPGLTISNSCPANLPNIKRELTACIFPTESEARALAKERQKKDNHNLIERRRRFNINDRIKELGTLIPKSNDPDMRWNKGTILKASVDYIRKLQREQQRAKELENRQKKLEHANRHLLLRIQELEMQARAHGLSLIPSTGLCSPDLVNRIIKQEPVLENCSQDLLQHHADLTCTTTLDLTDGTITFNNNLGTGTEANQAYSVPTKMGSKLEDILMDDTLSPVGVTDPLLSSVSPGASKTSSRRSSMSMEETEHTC

[13] = viability of HCT116 lacking mutant beta-catenin – cell-based, human colon tumor, dose response (AID 1045); type: functional;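 further: HCT116 colon tumor cells with beta catenin knocked out; cells exposed to compound for 60 hours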
[14] = cytotoxicity in MITF-independent A375 cells – cell-based, CellTiter-Glo luminescence, dry powder, set 9, counter-screen for MITF modulator project, dose response (AID 651591); type: functional; details: A-375
[15] = viability loss in MITF-independent A375 cells – cell-based, CellTiter-Glo luminescence, dry powder, set 6, counter-screen for MITF inhibitor project, dose response (AID 624488); type: functional; details: A-375
[16] = Vero E6 cell cytotoxicity, dose response, cytotoxicity control for non-replicating M. tuberculosis project, secondary assay (AID 492998); type: functional, VeroE6; details: Vero C1008
[17] = HepG2 cell cytotoxicity, dose response, cytotoxicity control for non-replicating M. tuberculosis project (AID 489018); type: functional; details: Mycobacterium tuberculosis
[18] = inhibitors of TRPM1-promoter reporter in SK-MEL-5 – cell-based, luciferase, dry powder, set 9, MITF inhibitor project, dose response (AID 651588); type: functional
[19] = target: T2, Streptokinase A (Streptococcus pyogenes serotype M1, UniProt P10520); test: viability-normalized secreted streptokinase activity reduction – plasminogen activation absorbance, OD405, dose response (AID 1914); type: functional, Streptococcus pyogenes M1 GAS;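 further: secreted streptokinase activity via plasminogen activation per viability signal from cell pellet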
T2 sequence (P10520 whole entry): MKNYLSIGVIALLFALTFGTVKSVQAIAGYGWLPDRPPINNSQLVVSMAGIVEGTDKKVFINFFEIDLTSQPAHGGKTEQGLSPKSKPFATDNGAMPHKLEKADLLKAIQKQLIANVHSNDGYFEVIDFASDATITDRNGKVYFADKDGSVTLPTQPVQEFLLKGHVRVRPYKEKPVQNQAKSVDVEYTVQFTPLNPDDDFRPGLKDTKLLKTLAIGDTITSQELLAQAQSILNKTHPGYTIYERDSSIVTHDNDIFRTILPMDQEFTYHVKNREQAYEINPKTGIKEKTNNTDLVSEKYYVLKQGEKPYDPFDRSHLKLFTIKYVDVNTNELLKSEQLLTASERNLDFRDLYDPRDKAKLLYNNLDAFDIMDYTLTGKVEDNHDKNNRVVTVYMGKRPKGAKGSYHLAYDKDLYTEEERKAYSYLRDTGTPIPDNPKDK

[20] = cells; type: functional
[21] = viability of PTEN-deleted HCT116 cells – cell-based, HCT116 PTEN knockout, dose response (AID 1047); type: functional;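 further: HCT116 colon tumor cells with PTEN knocked out; cells exposed to compound for 60 hours before readout; potency for loss of cell viability measured by luminescence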
[22] = tested on: Streptococcus sp. 'group A'; test: Streptococcus pyogenes SK(-)GAS viability under kanamycin – luminescence, BacTiterGlo, confirmation, counter-screen for streptokinase expression inhibitor project, dose response (AID 1900); type: functional, organism-based
[23] = viability loss in MITF-independent A375 cells – cell-based, CellTiter-Glo luminescence, dry powder, set 7, counter-screen for MITF inhibitor project, dose response (AID 624490); type: functional; details: A-375
[24] = growth inhibition of SK-MEL-5 melanoma cells – cell-based, CellTiter-Glo luminescence, dry powder, set 8, orthogonal assay for MITF inhibitor project, dose response (AID 651586); type: functional
[25] = tested on: INS1; test: INS-1E survival protection against cytokine death – cell-based, luminescence, retest, dose response (AID 449756); type: functional; details: Rattus norvegicus;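 further: cell death triggered by IL-1 beta plus TNF-alpha plus IFN-gamma mixture; protective hits raise ATP signal compared with cytokine alone wells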
[26] = MITF Measured in Cell-Based System Using Plate Reader - 2084-01_Inhibitor_Dose_DryPowder_Activity_Set7.; type: functional
[27] = cytotoxicity in melanoma parental cells – cell-based, CellTiter-Glo, dry powder, set 6, MITF inhibitor project, dose response (AID 624429); type: functional; details: SK-MEL-5
[28] = Dd2 parasite growth inhibition in erythrocytes – SYBR Green, dry powder samples, set 9, dose response (AID 1159568); type: functional, cell-based
[29] = P. falciparum Dd2 growth inhibitors, dose response, SYBR Green, cherry-picked samples (AID 1159567); type: functional, cell-based
[30] = target: G-protein coupled receptor 183 (Homo sapiens, UniProt P32249); test: SAR confirmation of small molecule antagonists of the EBI2 receptor via a luminescent beta-arrestin assa.; type: functional
[31] = target: Metabotropic glutamate receptor 7 (Homo sapiens, UniProt Q14831); test: potentiation of glutamate EC20 at mGlu7 – cell-based, calcium mobilization, Galpha15, dose response (AID 743384); type: functional
[32] = IC50 of insulin release inhibition, rat insulinoma INS-1E line, 5 mM glucose, cell-based (AID 1117331); type: functional
[33] = cells; type: functional, cell-based; details: INS-1E

Sequence of G-protein coupled receptor 183 (P32249 whole entry): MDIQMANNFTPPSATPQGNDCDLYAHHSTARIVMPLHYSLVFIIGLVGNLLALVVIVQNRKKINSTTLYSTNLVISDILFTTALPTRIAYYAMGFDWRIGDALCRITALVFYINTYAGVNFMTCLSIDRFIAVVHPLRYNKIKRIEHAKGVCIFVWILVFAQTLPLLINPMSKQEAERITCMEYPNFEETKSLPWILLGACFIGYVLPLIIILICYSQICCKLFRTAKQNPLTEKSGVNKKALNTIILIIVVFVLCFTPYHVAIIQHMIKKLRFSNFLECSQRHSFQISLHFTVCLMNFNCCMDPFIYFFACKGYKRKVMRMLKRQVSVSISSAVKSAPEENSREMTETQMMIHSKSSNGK
Sequence of Metabotropic glutamate receptor 7 (Q14831 whole entry): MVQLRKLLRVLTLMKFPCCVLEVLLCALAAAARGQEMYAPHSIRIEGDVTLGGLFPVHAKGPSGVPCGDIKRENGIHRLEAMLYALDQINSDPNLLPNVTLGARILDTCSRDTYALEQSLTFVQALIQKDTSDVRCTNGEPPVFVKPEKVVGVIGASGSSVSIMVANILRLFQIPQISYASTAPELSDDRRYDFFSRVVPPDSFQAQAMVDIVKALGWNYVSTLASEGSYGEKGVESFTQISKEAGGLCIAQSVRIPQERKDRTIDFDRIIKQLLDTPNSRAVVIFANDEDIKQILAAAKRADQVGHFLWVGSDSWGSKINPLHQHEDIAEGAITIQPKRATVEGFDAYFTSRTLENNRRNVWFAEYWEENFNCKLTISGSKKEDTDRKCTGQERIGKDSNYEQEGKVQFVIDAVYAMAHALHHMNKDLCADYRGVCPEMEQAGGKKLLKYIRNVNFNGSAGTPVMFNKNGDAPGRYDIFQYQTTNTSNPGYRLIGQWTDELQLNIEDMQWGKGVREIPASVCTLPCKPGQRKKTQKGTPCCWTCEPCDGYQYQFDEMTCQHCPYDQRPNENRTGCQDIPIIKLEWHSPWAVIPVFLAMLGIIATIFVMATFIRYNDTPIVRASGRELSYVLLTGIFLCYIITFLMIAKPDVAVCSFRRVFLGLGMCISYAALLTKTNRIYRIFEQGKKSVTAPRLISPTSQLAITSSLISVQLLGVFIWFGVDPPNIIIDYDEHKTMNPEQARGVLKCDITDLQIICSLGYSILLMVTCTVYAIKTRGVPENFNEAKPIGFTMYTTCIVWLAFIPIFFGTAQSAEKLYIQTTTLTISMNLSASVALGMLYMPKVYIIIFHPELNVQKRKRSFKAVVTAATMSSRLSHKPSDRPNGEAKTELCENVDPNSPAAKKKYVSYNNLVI
Sequence of Glutathione-S-transferase (Q26513 whole entry): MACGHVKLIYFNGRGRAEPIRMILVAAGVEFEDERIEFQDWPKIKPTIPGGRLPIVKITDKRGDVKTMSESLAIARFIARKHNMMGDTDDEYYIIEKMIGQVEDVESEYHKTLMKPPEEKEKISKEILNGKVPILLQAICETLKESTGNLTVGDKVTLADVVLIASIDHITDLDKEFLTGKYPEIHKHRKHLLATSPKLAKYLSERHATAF

CN(C)S(=O)(=O)N1CCC(Oc2ccc(C(=O)NCc3cnn(C)c3)cc2)CC1
IC50 [1]: > 109 µM (inactive) | IC50 [2]: > 83.3 µM (inactive)

O=[N+]([O-])c1ccc(-c2ccc(/C=N/c3c(-c4ccco4)nc4ccccn34)o2)cc1
IC50 [3]: 50.3 µM (active)

Cc1nc2ccccc2n1/N=C/c1ccc([N+](=O)[O-])s1
AC50 [4]: > 70 µM (inactive) | AC50 [5]: 6.24 µM (active) | AC50 [6]: 22.9 µM (active) | AC50 [7]: 2.52 µM (active) | EC50 [8]: 10.7 µM (active) | AC50 [9]: 22.9 µM (active) | CC50 [10]: 5.13 µM (active) | AC50 [11]: > 70 µM (inactive) | AC50 [12]: 3.51 µM (active) | EC50 [13]: 2.47 µM (active) | AC50 [14]: > 70 µM (inactive) | AC50 [15]: 47.3 µM (active) | CC50 [16]: 9.87 µM (active) | CC50 [17]: 12.4 µM (active) | AC50 [18]: 7.21 µM (active) | EC50 [19]: > 150 µM (not active) | IC50 [20]: 0.43 µM (active) | EC50 [21]: 3.72 µM (active) | EC50 [22]: 3.63 µM (active) | AC50 [23]: > 70 µM (inactive) | AC50 [24]: > 70 µM (inactive) | AC50 [25]: 2.01 µM (active) | AC50 [26]: 1.1 µM (active) | AC50 [27]: 10.7 µM (active)

CN1C(=O)c2cc(NC(=O)c3cccc(F)c3)ccc2OC[C@H]2O[C@H](CC(=O)NCC3CCCCC3)CC[C@H]21
AC50 [28]: 8.12 µM (active) | AC50 [29]: 8.99 µM (active)

CCN1CCN(C(=O)/C=C/c2ccc(Br)cc2)CC1
IC50 [30]: 0.0158 µM (active)

CCOc1ccc(-n2c(C)cc(C(=O)CSCc3cccc(C)c3)c2C)cc1
EC50 [31]: 10 µM (active)

CCN(CC)CCCN(c1ccccc1)C1Cc2ccccc2C1 [APRINDINE HYDROCHLORIDE]
IC50 [32]: 7.13 µM (inactive) | IC50 [33]: > 33.3 µM (inactive)
